Measured values published in patent US8552032B2, “Bicyclic derivatives useful as inhibitors of DPP-1” (Janssen Pharmaceutica NV, priority 2009, dated 2013).

Target: T1, recombinant human DPP-1 (Cathepsin C) (Homo sapiens, UniProt P53634)
T1 construct: made in house
Experiment: DPP-1 Inhibition Assay (in vitro), fluorogenic substrate GR-AMC
Assay type: biochemical
Conditions: 0.15 nM DPP-1, 10 uM GR-AMC, pH 7.0, room temperature; average value where tested multiple times
Description: Test compounds were assessed for DPP-1 (Cathepsin C) inhibitory activity using a fluorogenic substrate, GR-AMC (Glycine-Arginine-amino-4-methylcoumarin, Bachem, 1-1215). The amount of amino-methylcoumarin released is proportional to the DPP-1 activity, and the reaction is monitored kinetically with a Molecular Devices plate reader using black 96-well plates.
All compounds were tested under room temperature conditions. The assay buffer consisted of 50 mM HEPES, pH 7.0, 100 mM NaCl, 2 mM glutathione (GSH), and 0.002% TWEEN 20. GSH and TWEEN 20 were added to the buffer fresh daily. Just prior to use, an in-house preparation of recombinant human DPP-1 (240 μM stock, MW 49.6 kD) was diluted 600-fold in assay buffer containing fresh 2 mM dithiothreitol (DTT) to activate the enzyme, then diluted into assay buffer (without DTT) 133-fold for a DPP-1 working solution of 3 nM. Test compounds were diluted in DMSO for 20× their final assay concentrations.
Additions to a 96-well black Costar 3915 plates were as follows: 90 μL of 11 μM GR-AMC, 5 μL test compound (followed by mixing), and 5 μL 3 nM DPP1 to start the reaction. Fluorescent reactions were monitored kinetically at 360 nm excitation, 440 nm emission on a Molecular Devices Spectramax XPS reader. The Softmax Pro software of the reader determined the initial velocity of the selected data (the first 3-5 minutes of the reaction), and the best linear regression fit of the initial kinetic data. Final assay conditions were 0.15 nM DPP-1, 10 uM GR-AMC, 50 mM HEPES, pH 7.0, 100 mM NaCl, 2 mM GSH, 0.002% TWEEN 20, 1 uM DTT, 5.0% DMSO. Initial velocity rates were plotted vs. test compound concentration by use of a four-parameter logistics equation (nonlinear regression, sigmoidal dose-response (variable slope), with fixed Hill (1.0) using GraphPad Prism® software for determination of DPP-1 IC50. Within-run assay coefficient of variation (CV) was generally <10%; between-run CV <20%.
Representative compounds of the present invention were tested according to the procedure as described above, with results as listed in Table 12, below.

T1 sequence (P53634 25-463): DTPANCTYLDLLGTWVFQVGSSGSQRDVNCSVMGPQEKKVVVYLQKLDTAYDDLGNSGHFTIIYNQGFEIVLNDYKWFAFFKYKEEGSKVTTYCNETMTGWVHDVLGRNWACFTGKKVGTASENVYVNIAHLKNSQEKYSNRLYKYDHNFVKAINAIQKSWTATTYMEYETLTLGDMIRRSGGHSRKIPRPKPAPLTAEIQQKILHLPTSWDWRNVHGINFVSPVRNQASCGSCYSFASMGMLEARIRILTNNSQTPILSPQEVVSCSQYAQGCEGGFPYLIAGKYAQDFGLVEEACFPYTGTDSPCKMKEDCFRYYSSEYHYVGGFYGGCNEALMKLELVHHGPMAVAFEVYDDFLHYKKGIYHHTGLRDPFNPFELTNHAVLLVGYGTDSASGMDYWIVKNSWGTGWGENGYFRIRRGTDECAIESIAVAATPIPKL

| IC50 [µM] | Compound |
| --- | --- |
| 0.8 | CC[C@H](N)C(=O)NCCCc1cc2cc(C(=O)Nc3cccc(Cl)c3)ccc2[nH]1 [Compound 91] |
| 0.73 | CC[C@H](N)C(=O)NCCCc1cc2cc(C(=O)Nc3ccc(OC)c(OC)c3)ccc2o1 [Compound 58] |
| 1.8 | CC[C@H](N)C(=O)NCCCc1cc2cc(C(=O)NC3CCNc4ccccc43)ccc2o1 (stereo partly drawn) [Compound 73] |
| 4.1 | CC[C@H](N)C(=O)NCCCc1cc2cc(C(=O)Nc3ccccc3)ccc2o1 [Compound 51] |
| 0.35 | CC[C@H](N)C(=O)NCCCc1cc2cc(C(=O)Nc3cnc4ccccc4c3)ccc2o1 [Compound 64] |
| 2.4 | CC[C@H](N)C(=O)NCCCc1cc2cc(C(=O)Nc3ccc4[nH]cnc4c3)ccc2o1 [Compound 72] |
| 0.92 | CC[C@H](N)C(=O)NCCCc1cc2cc(C(=O)Nc3cccc(C)c3)ccc2[nH]1 [Compound 93] |
| 2.4 | CC[C@H](N)C(=O)NCCCc1cc2cc(C(=O)Nc3cccc4[nH]cnc34)ccc2o1 [Compound 85] |
| 0.2 | CC[C@H](N)C(=O)NCCCc1cc2cc(C(=O)Nc3ccc4ncccc4c3)ccc2o1 [Compound 67] |
| 0.35 | CC[C@H](N)C(=O)NCCCc1cc2cc(C(=O)Nc3cccc(OC)c3)ccc2[nH]1 [Compound 92] |
| 0.85 | CC[C@H](N)C(=O)NCCCc1cc2cc(C(=O)Nc3cccc4ccccc34)ccc2o1 [Compound 54] |
| 1.2 | CC[C@H](N)C(=O)NCCCc1cc2cc(C(=O)Nc3ccccc3C(C)C)ccc2[nH]1 [Compound 89] |
| 0.91 | CC[C@H](N)C(=O)NCCCc1cc2cc(C(=O)Nc3cccc4cccnc34)ccc2o1 [Compound 66] |
| 1 | CC[C@H](N)C(=O)NCCCc1cc2cc(C(=O)N3CCc4ccccc4C3)ccc2o1 [Compound 84] |
| 3.3 | CC[C@H](N)C(=O)NCCCc1cc2ccccc2o1 [Compound 42] |
| 0.35 | CC[C@H](N)C(=O)NCCCc1cc2cc(C(=O)Nc3ccc(OC)cc3)ccc2[nH]1 [Compound 77] |
| 1.4 | CC[C@H](N)C(=O)NCCCc1cc2cc(C(=O)Nc3cccc4c3ncn4C)ccc2o1 [Compound 59] |
| 1 | CC[C@H](N)C(=O)NCCCc1cc2cc(C(=O)Nc3ccccc3OC)ccc2[nH]1 [Compound 88] |
| 0.48 | CC[C@H](N)C(=O)NCCCc1cc2cc(C(=O)Nc3cccc4cnccc34)ccc2o1 [Compound 65] |
| 1 | CC[C@H](N)C(=O)NCCCc1cc2cc(C(=O)Nc3ccc4c(c3)S(=O)(=O)C=C4)ccc2o1 [Compound 86] |

Continued, molecule first:

| Compound | IC50 [µM] |
| --- | --- |
| COc1ccc(NC(=O)c2ccc3[nH]c(C4CCN(C(=O)[C@@H](N)Cc5cccs5)CC4)cc3c2)cc1OC [Compound 7] | 0.14 |
| CC[C@H](N)C(=O)NCCCc1cc2cc(-c3ccc(F)cc3)ccc2[nH]1 [Compound 101] | 0.79 |
| CC[C@H](N)C(=O)NCCCc1cc2ccccc2n1C [Compound 41, (S)-2-amino-N-(3-(1-methyl-1H-indol-2-yl)propyl)butanamide] | 6.3 |
| CC[C@H](N)C(=O)N1CCC(c2cc3cc(-c4ccc(OC)c(OC)c4)ccc3[nH]2)CC1 [Compound 9] | 3.7 |
| CC[C@H](N)C(=O)NCCCc1cc2cc(C(=O)Nc3cc[nH]n3)ccc2[nH]1 [Compound 61] | 4.3 |
| COc1ccc(-c2ccc3[nH]c(C4CCN(C(=O)[C@@H](N)Cc5cccs5)CC4)nc3c2)cc1OC [Compound 18, (S)-2-amino-1-(4-(5-(3,4-dimethoxyphenyl)-1H-benzo[d]imidazol-2-yl)piperidin-1-yl)-3-(thiophen-2-yl)propan-1-one] | 0.21 |
| COc1ccc(-c2ccc3[nH]c(C4CCN(C(=O)[C@@H](N)Cc5cccs5)CC4)cc3c2)cc1 [Compound 4] | 0.33 |
| N[C@@H](Cc1cccs1)C(=O)N1CCC(c2cc3cc(-c4ccncc4)ccc3[nH]2)CC1 [Compound 26] | 0.23 |
| CC[C@H](N)C(=O)NCCCc1cc2cc(C(=O)Nc3ccc(C)c(C)c3)ccc2[nH]1 [Compound 83] | 0.56 |
| CC[C@H](N)C(=O)NCCCc1cc2cc(-c3cc(C(F)(F)F)cc(C(F)(F)F)c3)ccc2[nH]1 [Compound 109] | 0.76 |
| CC[C@H](N)C(=O)NCCCc1cc2cc(C(=O)Nc3ncnc4[nH]ncc34)ccc2[nH]1 [Compound 63] | 2.5 |
| CC[C@H](N)C(=O)NCCCc1cc2cc(Oc3ccc(OC)c(OC)c3)ccc2[nH]1 [Compound 99, (S)-2-amino-N-(3-(5-(3,4-dimethoxyphenoxy)-1H-indol-2-yl)propyl)butanamide] | 0.42 |
| CCN(CCCc1cc2cc(C(=O)Nc3ccc(OC)c(OC)c3)ccc2[nH]1)C(=O)[C@@H](N)Cc1cccs1 [Compound 118] | 0.37 |
| NC(=O)c1cccc(-c2ccc3[nH]c(C4CCN(C(=O)[C@@H](N)Cc5nccs5)CC4)cc3c2)c1 [Compound 8] | 0.46 |
| CC[C@H](N)C(=O)NCCc1nc2ccccc2[nH]1 [Compound 38] | 6.5 |
| CC[C@H](N)C(=O)NCCc1nc2ccccc2n1C [Compound 39] | 43 |
| CC[C@H](N)C(=O)NCCCc1csc2ccccc12 [Compound 43] | 14 |

| Compound | IC50 [µM] |
| --- | --- |
| CC[C@H](N)C(=O)NCCCc1cc2cc(-c3ccc(C(F)(F)F)cc3)ccc2[nH]1 [Compound 102] | 0.71 |
| COc1ccc(-c2ccc3[nH]c(C4CCN(C(=O)C(N)c5ccco5)CC4)cc3c2)cc1OC (stereo not drawn) [Compound 29] | > 20 |
| COc1ccc(-c2ccc3[nH]c(C4CCN(C(=O)[C@@H](N)Cc5ccsc5)CC4)cc3c2)cc1OC [Compound 15] | 2.2 |
| N[C@@H](Cc1cccs1)C(=O)N1CCC(c2cc3ccccc3o2)CC1 [Compound 1] | 1.2 |
| CC[C@H](N)C(=O)NCCCc1cc2cc(C(=O)Nc3ccc(OC)c(OC)c3)ccc2[nH]1 (single isomer, unassigned) [Compound 110] | > 10 |
| COc1ccc(-c2ccc3[nH]c(C4CCN(C(=O)[C@@H](N)Cc5ccco5)CC4)cc3c2)cc1OC [Compound 13] | 0.85 |
| CC[C@H](N)C(=O)NCCCc1cc2cc(-c3ccc4c(c3)OCO4)ccc2[nH]1 [Compound 112] | 0.52 |
| N[C@@H](Cc1cccs1)C(=O)N1CCC(c2cc3cc(-c4ccc5c(c4)OCO5)ccc3[nH]2)CC1 [Compound 6] | 0.26 |
| CC[C@H](N)C(=O)NCCCc1cc2cc(C(=O)Nc3nc[nH]n3)ccc2[nH]1 [Compound 48] | 6.3 |
| N[C@@H](Cc1cccs1)C(=O)NCCCc1cc2ccccc2o1 [Compound 56] | 1.1 |
| CC[C@H](N)C(=O)NCCCc1cc2cc([N+](=O)[O-])ccc2o1 [Compound 49] | 19 |
| CC[C@H](N)C(=O)NCCCc1cc2cc(C(=O)Nc3ccc(F)c(F)c3)ccc2[nH]1 [Compound 81] | 0.79 |
| N[C@@H](Cc1cccs1)C(=O)N1CCC(c2cc3cc(-c4cccc(C(=O)O)c4)ccc3[nH]2)CC1 [Compound 21] | 0.54 |
| COc1ccc(-c2ccc3[nH]c(C4CCN(C(=O)[C@@H](N)Cc5nc(C)cs5)CC4)cc3c2)cc1OC [Compound 22] | 18 |
| COc1ccc(-c2ccc3[nH]c(C4CCN(C(=O)[C@@H](N)Cn5cccn5)CC4)cc3c2)cc1OC [Compound 11] | ~12 |
| COc1ccc(NC(=O)c2ccc3[nH]c(CCCNC(=O)[C@@H](N)Cc4cccs4)cc3c2)cc1OC [Compound 97] | 0.024 |
| COc1ccc(-c2ccc3[nH]c(C4CCN(C(=O)[C@@H](N)CC5CCC5)CC4)cc3c2)cc1OC [Compound 12] | 14 |
